Activity calls are given as the source filed them. The calls are words filed in the database; no cut-off is given here.
Tests used:
[1] = target: Acetylcholinesterase (Homo sapiens) (UniProt P22303); test: Inhibition of AChE (unknown origin) at 100 uM using acetylthiocholine iodide as substrate measured after 30 mins by Ellman's method
[2] = target: T1, Alpha glucosidase (Homo sapiens, UniProt O43451+P10253+P14410+Q2M2H8); test: Inhibition of alpha-glucosidase (unknown origin) at 400 uM using p-NPG as substrate pretreated for 10 mins followed by substrate addition measured after 5 mins; assay type: protein assay
[3] = Antioxidant activity assessed as AAPH radical scavenging activity at 12.5 uM by ORAC-FL assay; assay type: functional
[4] = target: T1, Alpha glucosidase; test: Inhibition of alpha-glucosidase (unknown origin) using p-NPG as substrate pretreated for 10 mins followed by substrate addition measured after 5 mins; assay type: protein assay
[5] = Antioxidant activity assessed as DPPH radical scavenging activity at 100 uM incubated for 30 mins under dark condition; assay type: functional

Sequence of Acetylcholinesterase (Homo sapiens) (P22303 whole entry): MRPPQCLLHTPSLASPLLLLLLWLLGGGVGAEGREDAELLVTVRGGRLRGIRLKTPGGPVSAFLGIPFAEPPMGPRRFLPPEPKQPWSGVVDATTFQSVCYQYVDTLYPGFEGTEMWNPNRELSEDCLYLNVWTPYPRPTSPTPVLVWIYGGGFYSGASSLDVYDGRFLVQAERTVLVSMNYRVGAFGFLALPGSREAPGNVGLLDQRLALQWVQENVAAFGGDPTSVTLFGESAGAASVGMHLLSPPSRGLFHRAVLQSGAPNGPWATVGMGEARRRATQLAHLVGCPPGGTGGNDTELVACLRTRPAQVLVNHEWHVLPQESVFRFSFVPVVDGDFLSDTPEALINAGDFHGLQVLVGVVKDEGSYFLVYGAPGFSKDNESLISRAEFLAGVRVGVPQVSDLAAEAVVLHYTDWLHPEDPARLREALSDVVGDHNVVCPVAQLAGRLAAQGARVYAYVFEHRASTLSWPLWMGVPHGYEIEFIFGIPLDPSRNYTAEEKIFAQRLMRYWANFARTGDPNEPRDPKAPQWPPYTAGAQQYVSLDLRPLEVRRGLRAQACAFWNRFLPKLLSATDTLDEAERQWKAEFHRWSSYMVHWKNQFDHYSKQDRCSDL

Structure (SMILES) | inhibition [1] | inhibition [2] | Activity [3] | IC50 [4] | Activity [5]
COc1cc(OC)c([C@H](O)[C@@H](C)O)cc1OC (relative stereo) | Active | Active |  |  | 
COc1cc(OC)c(C(O)C(C)=O)cc1OC (stereo not drawn) | Active | Active |  |  | 
O=C(O[C@@H]1Cc2c(O)cc(O)cc2O[C@@H]1c1cc(O)c(O)c(O)c1)c1cc(O)c(O)c(O)c1 |  |  | 1.97 µMequiv/µM |  | 
CCO[C@H](c1cc(OC)c(OC)cc1OC)[C@@H](C)O | Active | Active |  |  | 
CCO[C@H](c1cc(OC)c(OC)cc1OC)[C@H](C)O | Active | Active |  |  | 
COc1cc(OC)c(C(C)=O)cc1OC | Active | Active |  |  | 
COc1cc(OC)c([C@@H]2[C@@H](C)[C@H](c3cc(OC)c(OC)cc3OC)O[C@@H]2C)cc1OC (racemic) | Active | Active |  |  | 
COc1cc(OC)c([C@@H](OC)[C@H](C)O)cc1OC | Active | Active |  | 80.6 µM | 
COc1cc(OC)c(OC)cc1C=O | Active | Active |  |  | 
COc1ccc(CCCO)cc1OC | Active | Active |  |  | 
COc1cc([C@H]2OC[C@H]3[C@@H]2CO[C@@H]3c2ccc(O)c(OC)c2)ccc1O (racemic) | Active | Active | Active |  | Active
COc1cc(OC)c([C@@H](O)[C@@H](C)O)cc1OC (relative stereo) | Active | Active |  |  | 
COc1cc(OC)c([C@@H](OC)[C@@H](C)O)cc1OC | Active | Active |  |  | 
COc1cc([C@H]2Oc3c(OC)cc(CCCO[C@@H]4O[C@H](CO)[C@@H](O)[C@H](O)[C@H]4O)cc3[C@@H]2CO)ccc1O | Active | Active | 3.17 µMequiv/µM |  | Active
COc1cc([C@H]2Oc3c(OC)cc(CCCO)cc3[C@@H]2CO[C@@H]2O[C@H](CO)[C@@H](O)[C@H](O)[C@H]2O)ccc1O | Active | Active | Active |  | Active
COc1cc(OC)c([C@H](OC)[C@@H](C)O)cc1OC | Active | inactive |  |  | 
CCO[C@@H](c1cc(OC)c(OC)cc1OC)[C@@H](C)O | Active | Active |  |  | 
COc1cc(OC)c([C@H](OC)[C@H](C)O)cc1OC | Active | Active |  |  | 
COc1cc(OC)c([C@@H](C)C(OC)OC)cc1OC | Active | Active |  |  | 
CCO[C@@H](c1cc(OC)c(OC)cc1OC)[C@H](C)O | Active | Active |  |  | 
COc1cc(OC)c([C@H](C)C(OC)OC)cc1OC | Active | Active |  |  | 
